Patent US20260315565A1, “ANTIOXIDANT-CONTAINING EYE DROP FORMULATIONS AND METHODS OF PREVENTION AND/OR TREATMENT USING SAME” (Marizyme, Inc., priority 2022, published 2026)

Experiments:
[1] = accelerated stability of ascorbic acid in eye drop formulations (UV-VIS, 260 nm); format: physicochemical; settings: stored at 40° C. for 30 days; pH 3.5 vs pH 5
Procedure: (§1) Namely, appropriate amounts of the various components were weighed and then mixed with “Water for Injection” (WFI) at room temperature in a laminar flow hood to achieve the concentrations listed in Table 1. The various components were dissolved in the WFI using a magnetic stir bar and stirring at 350 rpm, or any appropriate mixing speed, until dissolution was complete. The final pH of each formulation was adjusted to pH 3.5 or pH 5.0, as listed in Table 1, using 5N HCl or 5N NaOH, respectively. The resulting solutions were then passed through a 0.21, […] filter while filling sterile vials with the respective formulations for use in stability studies. […]
(§2) At each point in the testing schedule, physical properties, such as clarity, color, odor, particle count and the like, of the formulations stored in the pulled vials were examined by physical observation. Concentrations of the antioxidants were also measured, and analytical tests of the formulations in the vials were carried out according to the protocol listed in Table 3.
(§3) The analytical assay method for stability testing of total thiols and ascorbic acid in eyedrop formulations (UV-VIS in Table 3) are performed as follows. […] Both components are measured on one sample preparation. […] By applying the appropriate dilution and conversion factors, the concentration of each component in the formulation can be calculated. […]

[2] = accelerated stability of glutathione (total thiols) in eye drop formulations (UV-VIS with DTNB, 412 nm); format: physicochemical; settings: stored at 40° C. for 30 days
Procedure: as §1, §2, §3

For `O=C1O[C@H]([C@@H](O)CO)C(O)=C1O` [ascorbic acid, L-ascorbic acid], the “stability of ascorbic acid” value [1] was “more stable at the lower pH of 3.5 compared to pH 5”.

With `N[C@@H](CCC(=O)N[C@@H](CS)C(=O)NCC(=O)O)C(=O)O` [glutathione, L-glutathione] the “effect of higher molar ratios of ascorbic acid on glutathione stability” value [2] was “destabilizing effect of higher molar ratios of ascorbic acid on glutathione”.
